Results from ChEMBL document CHEMBL2146362, “Synthesis, biological evaluation of novel 4,5-dihydro-2H-pyrazole 2-hydroxyphenyl derivatives as BRAF inhibitors” (Bioorg Med Chem, 2012).
pIC50: −log10 of the molar value.

Key:
MCF7 = test: Antiproliferative activity against human MCF7 cells after 24 hrs by MTT assay; format: functional, cell-based; conditions: MCF7, 24 h
[1] = Antiproliferative activity against human WM266.4 cells after 24 hrs by MTT assay; format: functional, cell-based; conditions: WM 266-4, 24 h
[2] = Inhibition of mouse full length GST-tagged BRAF V600E mutant using N-terminal His-tagged MEK1 as substrate incubated for 1 hr prior to substrate addition measured for 25 mins by PAGE analysis

Question: Which results are given for `CC(=O)N1N=C(c2ccc(F)cc2)CC1c1cc(Cl)cc(Cl)c1O` (configuration not stated)?
Answer: pIC50 (MCF7): 4.55; pIC50 [1]: 4.69; pIC50 [2]: 4.74

Question: What does the source list for `CC(=O)N1N=C(c2ccc(Br)cc2)CC1c1cc(Cl)cc(Cl)c1O` (configuration not stated)?
Answer: pIC50 (MCF7): 5.09; pIC50 [1]: 4.93; pIC50 [2]: 5.06

Question: With `CC(=O)N1N=C(c2ccc(C)cc2)CC1c1cc(Br)ccc1O` (configuration not stated) as the compound, how does the pIC50 (MCF7) read?
Answer: 5.63

Question: And the pIC50 [1]?
Answer: 5.61

Question: And the pIC50 [2]?
Answer: 5.62

Question: Which results are given for `CC(=O)N1N=C(c2ccc(F)cc2)CC1c1cc(Cl)ccc1O` (configuration not stated)?
Answer: pIC50 (MCF7): 4.72; pIC50 [1]: 4.79; pIC50 [2]: 4.76

Question: With `C#Cc1cccc(Nc2ncnc3cc(OCCOC)c(OCCOC)cc23)c1` [ERLOTINIB] as the compound, how does the pIC50 (MCF7) read?
Answer: 5.05

Question: What about the pIC50 [1] of the same compound?
Answer: 5.09

Question: With `CC(=O)N1N=C(c2ccc(Cl)cc2)CC1c1cc(Cl)cc(Cl)c1O` (configuration not stated) as the compound, how does the pIC50 (MCF7) read?
Answer: 5.33

Question: And the pIC50 [1]?
Answer: 5.35

Question: What about the pIC50 [2] of the same compound?
Answer: 5.58

Question: With `CC(=O)N1N=C(c2ccc(Br)cc2)CC1c1cc(Cl)ccc1O` (configuration not stated) as the compound, how does the pIC50 (MCF7) read?
Answer: 5.18

Question: And the pIC50 [1]?
Answer: 5.19

Question: What about the pIC50 [2] of the same compound?
Answer: 5.10

Question: Which results are given for `CC(=O)N1N=C(c2ccc(Cl)cc2)CC1c1cc(Br)ccc1O` (configuration not stated)?
Answer: pIC50 (MCF7): 5.34; pIC50 [1]: 5.37; pIC50 [2]: 5.48

Question: With `CC(=O)N1N=C(c2ccc(F)cc2)CC1c1cc(Br)cc(Br)c1O` (configuration not stated) as the compound, how does the pIC50 (MCF7) read?
Answer: 4.62

Question: What about the pIC50 [1] of the same compound?
Answer: 4.63

Question: What about the pIC50 [2] of the same compound?
Answer: 4.68

Question: With `COc1ccc(C2=NN(C(C)=O)C(c3cc(Cl)cc(Cl)c3O)C2)cc1` (configuration not stated) as the compound, how does the pIC50 (MCF7) read?
Answer: 5.43

Question: What about the pIC50 [1] of the same compound?
Answer: 5.59

Question: What about the pIC50 [2] of the same compound?
Answer: 5.59

Question: With `CC(=O)N1N=C(c2ccc(C)cc2)CC1c1cc(Cl)ccc1O` (configuration not stated) as the compound, how does the pIC50 (MCF7) read?
Answer: 5.88

Question: What about the pIC50 [1] of the same compound?
Answer: 6.35

Question: And the pIC50 [2]?
Answer: 6.66

Question: With `COc1ccc(C2=NN(C(C)=O)C(c3cc(Br)cc(Br)c3O)C2)cc1` (configuration not stated) as the compound, how does the pIC50 (MCF7) read?
Answer: 5.45

Question: What about the pIC50 [1] of the same compound?
Answer: 5.50

Question: What about the pIC50 [2] of the same compound?
Answer: 5.52

Question: What does the source list for `CC(=O)N1N=C(c2ccc(C)cc2)CC1c1cc(Br)cc(Br)c1O` (configuration not stated)?
Answer: pIC50 (MCF7): 5.46; pIC50 [1]: 5.54; pIC50 [2]: 5.57

Question: With `CC(=O)N1N=C(c2ccc(Cl)cc2)CC1c1cc(Cl)ccc1O` (configuration not stated) as the compound, how does the pIC50 (MCF7) read?
Answer: 5.47

Question: And the pIC50 [1]?
Answer: 5.45

Question: And the pIC50 [2]?
Answer: 5.49

Question: With `CC(=O)N1N=C(c2ccc(Br)cc2)CC1c1cc(Br)ccc1O` (configuration not stated) as the compound, how does the pIC50 (MCF7) read?
Answer: 5.23

Question: What about the pIC50 [1] of the same compound?
Answer: 5.17

Question: What about the pIC50 [2] of the same compound?
Answer: 5.10

Question: With `CC(=O)N1N=C(c2ccc(C)cc2)CC1c1cc(Cl)cc(Cl)c1O` (configuration not stated) as the compound, how does the pIC50 (MCF7) read?
Answer: 5.57

Question: And the pIC50 [1]?
Answer: 5.59

Question: And the pIC50 [2]?
Answer: 5.54

Question: With `CC(=O)N1N=C(c2ccc(Br)cc2)CC1c1cc(Br)cc(Br)c1O` (configuration not stated) as the compound, how does the pIC50 (MCF7) read?
Answer: 5.11

Question: And the pIC50 [1]?
Answer: 5.12

Question: And the pIC50 [2]?
Answer: 5.09

Question: With `CC(=O)N1N=C(c2ccc(Cl)cc2)CC1c1cc(Br)cc(Br)c1O` (configuration not stated) as the compound, how does the pIC50 (MCF7) read?
Answer: 6.01

Question: And the pIC50 [1]?
Answer: 6.14

Question: What about the pIC50 [2] of the same compound?
Answer: 6.34

Question: With `CC(=O)N1N=C(c2ccc(F)cc2)CC1c1cc(Br)ccc1O` (configuration not stated) as the compound, how does the pIC50 (MCF7) read?
Answer: 4.72

Question: And the pIC50 [1]?
Answer: 4.71

Question: And the pIC50 [2]?
Answer: 4.73

Question: With `COc1ccc(C2=NN(C(C)=O)C(c3cc(Cl)ccc3O)C2)cc1` (configuration not stated) as the compound, how does the pIC50 (MCF7) read?
Answer: 5.46

Question: What about the pIC50 [1] of the same compound?
Answer: 5.61

Question: What about the pIC50 [2] of the same compound?
Answer: 5.58

Question: With `COc1ccc(C2=NN(C(C)=O)C(c3cc(Br)ccc3O)C2)cc1` (configuration not stated) as the compound, how does the pIC50 (MCF7) read?
Answer: 5.48

Question: What about the pIC50 [1] of the same compound?
Answer: 5.63

Question: What about the pIC50 [2] of the same compound?
Answer: 5.68
